Results: patent US20010014737A1, “Vitronectin receptor antagonist” (priority 1997, published 2001)

Target: T1, ανβ3 (the vitronectin receptor) (Homo sapiens, UniProt P05106+P06756)
T1 construct: Human placenta or human platelet ανβ3 (0.1-0.3 mg/mL) in buffer T; from tissue; host or cells: human placenta or human platelets
Assay: Solid-Phase [3H]-SK&F-107260 Binding to ανβ3 (inhibition of vitronectin binding)
Details: read-out: inhibits [3H]-SK&F-107260 binding to ανβ3 at a concentration
Experimental: Inhibition of vitronectin binding
Solid-Phase [^3H]-SK&F-107260 Binding to ανβ3: Human placenta or human platelet ανβ3 (0.1-0.3 mg/mL) in buffer T (containing 2 mM CaCl2 and 1% octylglucoside) was diluted with buffer T containing 1 mM CaCl2, 1 mM MnCl2, 1 mM MgCl2 (buffer A) and 0.05% NaN3, and then immediately added to 96-well ELISA plates (Corning, New York, N.Y.) at 0.1 mL per well. 0.1 - 0.2 μg of ανβ3 was added per well. The plates were incubated overnight at 4° C. At the time of the experiment, the wells were washed once with buffer A and were incubated with 0.1 mL of 3.5% bovine serum albumin in the same buffer for 1 hr at room temperature. Following incubation the wells were aspirated completely and washed twice with 0.2 mL buffer A. […]
The plates were incubated for 1 hr at room temperature. […] The receptors were solubilized with 0.1 mL of 1% SDS and the bound f^3H]-SK&F-107260 was determined by liquid scintillation counting with the addition of 3 mL Ready Safe in a Beckman LS Liquid Scintillation Counter, with 40% efficiency. Nonspecific binding of [^3H]-SK&F-107260 was determined in the presence of 2 μM SK&F-107260 and was consistently less than 1% of total radioligand input. […]

T1 sequence (P06756 31-889 limits assumed): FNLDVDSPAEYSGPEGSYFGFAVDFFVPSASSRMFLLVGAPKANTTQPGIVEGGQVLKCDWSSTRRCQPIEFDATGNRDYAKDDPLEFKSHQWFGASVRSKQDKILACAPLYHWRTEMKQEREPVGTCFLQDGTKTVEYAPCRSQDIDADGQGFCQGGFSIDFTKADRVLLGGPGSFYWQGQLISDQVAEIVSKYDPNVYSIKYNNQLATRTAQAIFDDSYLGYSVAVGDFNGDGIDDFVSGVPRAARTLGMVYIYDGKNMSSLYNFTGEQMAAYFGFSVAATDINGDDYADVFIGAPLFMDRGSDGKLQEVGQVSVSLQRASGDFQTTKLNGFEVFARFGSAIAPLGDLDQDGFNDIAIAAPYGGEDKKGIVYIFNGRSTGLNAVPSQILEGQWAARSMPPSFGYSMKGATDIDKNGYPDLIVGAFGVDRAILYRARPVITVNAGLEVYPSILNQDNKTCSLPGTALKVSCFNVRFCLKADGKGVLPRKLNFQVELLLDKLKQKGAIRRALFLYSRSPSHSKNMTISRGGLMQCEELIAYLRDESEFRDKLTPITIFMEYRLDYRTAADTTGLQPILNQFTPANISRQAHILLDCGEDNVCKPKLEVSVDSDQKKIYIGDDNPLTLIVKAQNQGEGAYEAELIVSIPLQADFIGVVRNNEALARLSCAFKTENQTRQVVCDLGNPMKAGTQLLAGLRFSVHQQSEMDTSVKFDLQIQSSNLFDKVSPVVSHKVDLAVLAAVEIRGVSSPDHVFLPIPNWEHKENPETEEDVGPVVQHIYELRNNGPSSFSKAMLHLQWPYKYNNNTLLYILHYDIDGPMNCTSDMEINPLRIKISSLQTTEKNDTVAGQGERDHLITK
T1 sequence (P06756 891-1048 partner limits assumed): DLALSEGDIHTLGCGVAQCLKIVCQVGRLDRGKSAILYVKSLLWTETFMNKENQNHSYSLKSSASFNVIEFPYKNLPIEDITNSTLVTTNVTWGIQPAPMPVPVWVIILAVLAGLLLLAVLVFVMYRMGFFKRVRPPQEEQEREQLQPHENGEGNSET
T1 sequence (P05106 27-788): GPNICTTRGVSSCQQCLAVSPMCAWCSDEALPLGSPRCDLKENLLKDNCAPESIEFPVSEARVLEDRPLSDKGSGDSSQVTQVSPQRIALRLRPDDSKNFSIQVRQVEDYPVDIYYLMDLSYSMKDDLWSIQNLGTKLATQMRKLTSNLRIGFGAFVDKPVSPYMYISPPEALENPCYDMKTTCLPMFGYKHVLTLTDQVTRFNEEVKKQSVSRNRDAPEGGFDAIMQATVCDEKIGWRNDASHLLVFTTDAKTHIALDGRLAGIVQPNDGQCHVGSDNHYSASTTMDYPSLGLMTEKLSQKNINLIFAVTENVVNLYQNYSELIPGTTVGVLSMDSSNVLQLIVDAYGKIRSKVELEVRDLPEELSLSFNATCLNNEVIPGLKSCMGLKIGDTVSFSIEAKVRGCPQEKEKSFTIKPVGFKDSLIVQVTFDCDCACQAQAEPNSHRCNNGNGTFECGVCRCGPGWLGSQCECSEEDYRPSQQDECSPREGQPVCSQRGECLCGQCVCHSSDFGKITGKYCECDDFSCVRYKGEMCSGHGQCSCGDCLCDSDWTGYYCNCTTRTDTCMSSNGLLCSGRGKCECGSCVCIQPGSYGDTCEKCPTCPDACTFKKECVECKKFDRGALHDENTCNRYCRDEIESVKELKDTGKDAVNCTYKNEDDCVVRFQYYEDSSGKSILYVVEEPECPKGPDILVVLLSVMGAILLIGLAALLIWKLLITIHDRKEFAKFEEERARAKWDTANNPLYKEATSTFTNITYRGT

With `Cc1ccnc(NCCCOc2ccc3c(c2)CN(Cc2ccc(C(F)(F)F)cc2)C(=O)[C@H](CC(=O)O)C3)c1` [Example 1, (S)-8-[3-(4-methylpyridin-2-ylamino)-1-propyloxy]-3-oxo-2-[4-(trifluoromethyl)benzyl]-2,3,4,5-tetrahydro-1 H-2-benzazepine-4-acetic acid] the IC50 was ~3 nM.
